Results published in PMC10123100, “Single-molecule visualization of stalled replication-fork rescue by the Escherichia coli Rep helicase” (Nucleic Acids Research, 2023).

How the values were obtained:
[1] = molecular target: T1, Rep helicase (His6-Rep WT) (Escherichia coli, UniProt P09980); assay: SPR, nucleotide-stimulated dissociation of Rep from immobilised dT35; assay type: binding; details: 200 uM ATP, 20 nM Rep, biotinylated dT35, Mg2+, pH 7.6, 20 C
T1 construct: full-length with His6 tag kept, plasmid pZX2198, expressed in E. coli BL21(DE3)/pLysS; monomer, multimer on long ssDNA
T1 sequence (P09980 whole entry): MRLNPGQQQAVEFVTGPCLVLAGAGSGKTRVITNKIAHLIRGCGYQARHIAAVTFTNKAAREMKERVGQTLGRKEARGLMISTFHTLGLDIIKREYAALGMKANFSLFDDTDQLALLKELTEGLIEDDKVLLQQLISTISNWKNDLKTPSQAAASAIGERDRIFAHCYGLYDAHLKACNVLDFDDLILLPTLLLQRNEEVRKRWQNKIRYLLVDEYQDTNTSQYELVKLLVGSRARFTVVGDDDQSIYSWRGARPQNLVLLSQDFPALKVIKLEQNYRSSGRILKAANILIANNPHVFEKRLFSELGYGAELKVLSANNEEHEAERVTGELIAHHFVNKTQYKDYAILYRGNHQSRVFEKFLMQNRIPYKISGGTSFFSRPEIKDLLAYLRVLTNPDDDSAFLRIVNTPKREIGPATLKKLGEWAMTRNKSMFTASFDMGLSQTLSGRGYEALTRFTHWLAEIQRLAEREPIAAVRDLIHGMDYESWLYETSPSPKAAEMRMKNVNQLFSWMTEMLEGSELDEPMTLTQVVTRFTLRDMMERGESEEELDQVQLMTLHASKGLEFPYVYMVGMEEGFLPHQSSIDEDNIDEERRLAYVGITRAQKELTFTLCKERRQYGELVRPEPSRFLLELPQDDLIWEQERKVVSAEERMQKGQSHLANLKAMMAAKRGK

[2] = molecular target: T1, Rep helicase (His6-Rep WT); assay: as above; assay type: binding; details: 200 uM ATP, 20 nM Rep, biotinylated dT35, Mg2+, pH 7.6, 20 C; remark: listed apart in the source

## Nc1ncnc2c1ncn2[C@@H]1O[C@H](COP(=O)(O)OP(=O)(O)OP(=O)(O)O)[C@@H](O)[C@H]1O [ATP]
[1]
  SPR, nucleotide-stimulated dissociation of Rep from immobilised dT35: ATP, but not ADP or AMP-PNP, stimulated the dissociation of Rep WT and Rep ΔC33
[2]
  SPR, nucleotide-stimulated dissociation of Rep from immobilised dT35: ATP, but not ADP or AMP-PNP, stimulated the dissociation of Rep WT and Rep ΔC33
